Experimental data taken from patent US20250057097A1, “PHOSPHODIESTERASES INHIBITORS TO PROMOTE IN VITRO PLANT CELL REPROGRAMMING TOWARDS PLANT EMBRYOGENESIS OR MICROCALLUS FORMATION” (CONSEJO SUPERIOR DE INVESTIGACIONES CIENTÍFICAS (CSIC), priority 2021, published 2025).

Tests used:
[1] = system: Brassica napus microspore cotyledonary embryos; test: Germination capacity of embryos produced in treated microspore cultures; type: cell-based; details: cotyledonary embryos from 30-40 days cultures, desiccated and cultured under germination conditions
Description: To evaluate the quality of embryos produced in microspore embryogenesis cultures in the presence of the inhibitors, embryo germination assays were performed. Brassica napus microspore cotyledonary embryos originated from control and treated-cultures were used for in vitro embryo germination and conversion to plantlets as previously described (Prem et al., 2012 BMC Plant Biology 12, 127). The 34-40 old dicotyledonous embryos, after air desiccation on sterile filter paper were germinated in MS (Murashige and Skoog) medium containing sucrose 2% (w/v) and gelled with 7 g/L bacteriological agar (w/v). Microspore derived-embryos were incubated for 15-20 days at 18° C. in darkness conditions till activation of radicle and plumule, and quantified in terms of percentage of embryos showing normal growth, similar to zygotic embryo germination.

[2] = system: Arabidopsis mesophyll protoplasts; test: Microcallus formation (proliferation efficiency) in immobilized mesophyll protoplasts; type: cell-based, Arabidopsis thaliana; details: 48 h pulse treatment
Description: Seeds of an Arabidopsis thaliana line overexpressing histone 2B fused with yellow fluorescent protein (H2B-YFP) were surface-sterilized and sown on MS agar. After 24 h stratification, plates were cultured vertically for 7 days under long day conditions (16 h light-8 h dark) at 22° C. Prior to seedling harvest, plates were kept vertically in the dark at 4° C. for 24 h. Protoplasts were isolated from hypocotyl and cotyledons including primary leaves according to Dovzhenko et al., Protoplasma, 222(1-2):107-11 (2003).
Protoplast density was determined by cell counting in a Fuchs-Rosenthal chamber. For immobilization, protoplasts were mixed with equal volumes of 1.2% (w/v) low melting agarose in protoplast buffer, prewarmed at 40° C. and immediately pipetted into a 96-well plate (Ibidi, Germany), prewarmed at 34° C. with 125 μL per well. The plate was immediately centrifuged (2 min, 30 g) and incubated at 4° C. for 5 min, 200 μL of cultivation medium was added on top of each well and the protoplasts were cultivated at 22° C. in the dark. Cultivation medium was composed of macro and micro elements based on Kao K N and Michayluk M R. Planta., 126(2):105-10 (1975), supplemented with 2 μM of 2,4-D and 1 μM of thidiazurone. For PDE inhibitors treatments, PDE inhibitors were dissolved in DMSO and added to the medium with the concentration given (liquid media). […]
An automated microscope (MORE1, Till I.D. GmbH, Munich, Germany) was used for the analysis of protoplast development and for the detection of YFP fluorescence. Transillumination was recorded with 10×0.45 and 20×0.8 objectives (Zeiss); epifluorescence was recorded after excitation with single-mode diode lasers (iBeam smart, Toptica) with excitation of 550 nm (YFP)/green emission filter. […]
Images were recorded immediately after immobilization and 10 days after immobilization (DAIs). […] Quantification of proliferating cells was performed by exploiting shape differences of dividing or closely adjacent nuclei after the application of EDM binary operations on epifluorescence images in comparison with circular fluorescence signals from non-dividing mononucleic cells (Brocher Int. J. Image Process, 8, 30-48 (2014)). Corresponding cellular shape parameters from proliferating microcalli were determined from selecting segmented transillumination images after filtering with processed epiflourescence images using the BioVoxxel binary feature extraction function.
PDE inhibitors were tested for their capability to increase the proliferation rate of Arabidopsis protoplasts isolated from leaves. […] Microscopic images were recorded 10 days after immobilization and proliferating microcalli were identified by the presence of multiple fluorescing nuclei visualized by exploiting the nuclear-encoded H2B-YFP marker (see FIG. 3). […]

Row | SMILES | germination capacity / quality of embryos [1] | induction of microcallus formation compared with the untreated control ([2]; 10 μM) [%] | microcalli formation rate increased by, relative to the untreated control ([2]; 10 μM) [%] | increased rate of microcalli formation relative to the untreated control ([2]; 1 μM) [%]
1 | COc1ccc(-c2nc(-c3ccccc3Br)[nH]c2-c2ccc(OC)cc2)cc1 [AGF4.17, 2-(2-Bromophenyl)-4,5-bis(4-methoxyphenyl)-1H-imidazole] | well-developed roots and hypocotyls in most embryos | 250 |  | 
2 | O=C(Nc1c(Cl)cncc1Cl)c1ccc(OC(F)F)c(OCC2CC2)c1 [FDA4.21, 3-(cyclopropylmethoxy)-N-(3,5-dichloropyridin-4-yl)-4-(difluoromethoxy) benzamide, reference compound] | well-developed roots and hypocotyls in most embryos |  |  | 
3 | COc1ccc(C2CNC(=O)C2)cc1OC1CCCC1 (stereo not drawn) [FDA4.22, 4-(3-cyclopentyloxy-4-methoxyphenyl)pyrrolidin-2-one, reference compound] | well-developed roots and hypocotyls in most embryos |  |  | 
4 | Cc1oc(-c2ccccc2F)nc1CN1CCC[C@@H](C(=O)NCc2cccc(Cl)c2)C1 [JHD1.48, (R)—N-(3-chlorobenzyl)-1-((2-(2-fluorophenyl)-5-methyloxazol-4-yl)methyl) piperidin-3-carboxamide] | well-developed roots and hypocotyls in most embryos |  | 50 | 
5 | CSc1nc2ccccc2c(=O)n1-c1c(F)cccc1F [TC2.43, 3-(2,6-Difluorophenyl)-2-methylthio-4-oxo-3,4-dihydroquinazoline] | well-developed roots and hypocotyls in most embryos |  | 200 | 140
